Assay results reported in patent US7939542B2, “Cinnamaldehyde derivatives having improved solubility in water, a method for preparing the same and a pharmaceutical composition comprising the same” (Korea Research Institute of Bioscience and Biotechnology, priority 2008, dated 2011).

Assays:
[1] = Solubility (physicochemical properties); conditions: for Solubility: Insoluble: solvents in which the compound is insoluble; for Solubility: Soluble: solvents in which the compound is soluble
[2] = tested on: human colon carcinoma SW620 cells; experiment: Cell cycle analysis by flow cytometry (PI staining); assay type: cell-based; conditions: 48 hours
Protocol: In practice, when human colon carcinoma SW620 cells are dosed with 10 to 20 μM of the compound of Chemical Formula 1, the compound induces a cell cycle arrest in the G2/M phase, leading to cell growth inhibition. The inhibition of the growth of cancer cells may be tested as follows. In brief, human colon carcinoma SW620 cells were dosed with the compound dissolved in DMSO. After 48 hrs, nuclear DNA was stained with propidium iodide. The stained cells were analyzed to determine the cell cycle using a FACSCalibur cytometer (Becton-Dickinson, San Jose, Calif., USA). The proportions of cells in G1, S and G2/M phases were determined using a Becton-Dickinson Modifit cell-cycle analysis program and expressed as percentages.
For flow cytometric analysis, human colon carcinoma SW620 cells were plated in T25 flasks (containing 7.5 ml of culture medium) and cultured in RPMI 1640 and DMEM media, each of which was supplemented with 10% FBS, in an incubator at 37° C. for 12 hrs. Then, as a control, DMSO was added to the culture medium at a final concentration of 0.1% (7.5 μl). As compound treatment groups, 7.5 μl of each of compounds dissolved in DMSO at various concentrations was added to the culture medium. After 48 hours, control (DMSO) and compound-treated cells were harvested and subjected to flow cytometric analysis.
After the culture media were removed from flasks, cells were trypsinized and centrifuged at 300 g for 5 min. The collected cells were washed with phosphate buffer twice to remove culture media. The cells were then fixed in 3 ml of 70% ethanol at −20° C. for 12 hrs. The fixed cells were centrifuged at 300 g for 5 min and washed with cold PBS twice to remove remaining ethanol. The washed cells were resuspended in 500 μl of PBS, and treated with 50 μl of 100 μg/ml RNase A at 37° C. for 30 min. Then, cells were incubated in 10 μl of 1 mg/ml propidium iodide (PI) in PBS for DNA staining. The cell cycles of 20,000 stained cells were analyzed using a FACSCalibur cytometer (Becton-Dickinson, San Jose, Calif., USA). Cell cycle fractions were quantified using a Becton-Dickinson Modifit cell-cycle analysis program, and the distribution of cells in G1, S and G2/M phases was expressed as percentages.

[3] = tested on: human colon carcinoma HT-29 cells; experiment: Anticancer activity upon oral administration to tumor-xenografted nude mice; assay type: in vivo; conditions: HT-29 xenograft, 10 mg/kg orally once every day, Day 18, p<0.001
Protocol: Tumor diameter was measured in three planes with a vernier caliper. Tumor volume (V) was calculated using the following Equation 1. Tumor volume=(Length×Width×Height)/2 [Equation 1]
On Day 18 of tumor transplantation, animals were sacrificed, and tumors were excised and weighed.

[4] = Body weight change in tumor-xenografted nude mice; conditions: positive control 2 mg/kg, 18 days, p<0.001
Protocol: Nude mice were divided into three groups: a compound administration group, a vehicle control group and a positive control group. A 0.3-ml aliquot of human colon carcinoma HT-29 cells (3×10^7 cells/ml) was injected subcutaneously into the right axilla between the scapular region and the chest wall of mice. From the day (Day 1) after tumor transplantation to the day before sacrifice, the compound of Chemical Formula 6 was administered orally at a dose of 10 mg/kg once every day.
In order to investigate the clinical signs of drug toxicity, animals were monitored for change in body weight about three times a week during the test period.

## CN1CCN(C(=O)Oc2ccccc2/C=C/C=O)CC1.Cl [Compound of Formula 7]
[1]
  Solubility: Insoluble: Hexane, acetone
  Solubility: Soluble: Alcohol, H2O
[2]; SW620, 30 μM
  Cell distribution (%) G0-G1: 35.11%
  Cell distribution (%) G2-M: 47.83%
  Cell distribution (%) S: 17.06%

## Cl.O=C/C=C/c1ccccc1OCc1ccncc1 [Compound of Formula 6]
[3]
  tumor growth inhibitory effect: 30.7%
[1]
  Solubility: Insoluble: Hexane, acetone
  Solubility: Soluble: Alcohol, H2O
[2]; SW620, 20 μM
  Cell distribution (%) G0-G1: 39.80%
  Cell distribution (%) G2-M: 33.63%
  Cell distribution (%) S: 26.57%
[2]; SW620, 40 μM
  Cell distribution (%) G0-G1: 43.85%
  Cell distribution (%) G2-M: 41.31%
  Cell distribution (%) S: 14.84%

## COCC(=O)Oc1ccccc1/C=C/C=O [Compound of Formula 2]
[1]
  Solubility: Insoluble: Hexane
  Solubility: Soluble: Alcohol, DMSO
  Water solubility: 320 µM
[2]; SW620, 20 μM
  Cell distribution (%) G0-G1: 33.00%
  Cell distribution (%) G2-M: 49.94%
  Cell distribution (%) S: 17.06%

## O=C/C=C/c1ccccc1OCc1ccncc1 [Compound of Formula 3]
[1]
  Solubility: Insoluble: Hexane, H2O
  Solubility: Soluble: Alcohol, DMSO
[2]; SW620, 20 μM
  Cell distribution (%) G0-G1: 39.80%
  Cell distribution (%) G2-M: 33.63%
  Cell distribution (%) S: 26.57%

## O=C/C=C/c1ccccc1OS(=O)(=O)c1ccccc1 [Compound of Formula 5]
[1]
  Solubility: Insoluble: Hexane
  Solubility: Soluble: Alcohol, DMSO
  Water solubility: 600 µM
[2]; SW620, 20 μM
  Cell distribution (%) G0-G1: 36.01%
  Cell distribution (%) G2-M: 45.94%
  Cell distribution (%) S: 18.05%

## COc1cccc2c1C(=O)c1c(O)c3c(c(O)c1C2=O)C[C@@](O)(C(=O)CO)C[C@@H]3O[C@H]1C[C@H](N)[C@H](O)[C@H](C)O1 [adriamycin]
[4]
  weight loss: 10.3%

## CN1CCN(C(=O)Oc2ccccc2/C=C/C=O)CC1 [Compound of Formula 4]
[1]
  Solubility: Insoluble: Hexane, H2O
  Solubility: Soluble: Alcohol, DMSO
[2]; SW620, 30 μM
  Cell distribution (%) G0-G1: 37.50%
  Cell distribution (%) G2-M: 45.49%
  Cell distribution (%) S: 17.01%
